Experiments:
[1] = laser diffraction, dry module, 1 bar
Experimental: The particles obtained in Example 1 and Comparative Examples 1 and 2 were analyzed for particle size distribution using a particle size analyzer (Mastersizer 2000®, Malvern) based on laser diffraction. The samples were injected at a pressure of 1 bar with a dry module (Scirocco 2000®, Malvern). Each particle was measured for particle size (d0.1), particle size (d0.5) and particle size (d0.9).

[2] = crystalline form; see U.S. Pat. No. 6,429,210; cited from earlier work

Compound | d(0.1) [1] | d(0.5) [1] | d(0.9) [1] | density [2]
COC(=O)[C@H](c1ccccc1Cl)N1CCc2sccc2C1 [Example 1, clopidogrel bisulfate] | 52.536 μm | 74.567 μm | 106.074 μm | –
COC(=O)[C@H](c1ccccc1Cl)N1CCc2sccc2C1 [Comp. Example 2, clopidogrel bisulfate] | 8.475 μm | 85.770 μm | 168.393 μm | –
COC(=O)[C@H](c1ccccc1Cl)N1CCc2sccc2C1 [Comp. Example 1, clopidogrel bisulfate] | 1.052 μm | 6.055 μm | 13.724 μm | –
COC(=O)[C@H](c1ccccc1Cl)N1CCc2sccc2C1 [Form II, clopidogrel bisulfate] | – | – | – | 1.462 g/cm^2
COC(=O)[C@H](c1ccccc1Cl)N1CCc2sccc2C1 [Form I, clopidogrel bisulfate] | – | – | – | 1.505 g/cm^2

Reference: patent US20140154330A1, “SPHERICAL PARTICLES OF CLOPIDOGREL BISULFATE, PHARMACEUTICAL COMPOSITION COMPRISING THE SAME, AND PREPARATION METHOD THEREOF” (ASTECH. CO., LTD., priority 2011, published 2014)
